Patent publication US20040014706A1, “Use of carp inhibitors for the treatment of heart diseases” (priority 2000, published 2004)

Key:
[1] = Isoprenaline-induced cardiac hypertrophy in rats (heart weight/body weight); format: in vivo, Male Wistar rats; conditions: 2.4 mg/kg/d, Alzet mini pump, 4 days; vs NaCl controls
Method: (§1) Male Wistar rats were treated with isoprenaline (ISO, 2.4 mg/kg/d, Alzet mini pump) for 4 days. Controls were infused with NaCl. […] To gain further insight into the mechanism by which CARP expression is regulated, isolated myocytes were treated with ISO (1 μM) and phenylephrine (PE, 50 μM). For comparison the effects of the alpha-adrenoceptor agonist phenylephrine (PE, 50 μM) were studied.

CARP protein [2] = assay: CARP protein in treated rats, Western blot; format: in vivo, Male Wistar rats; conditions: 2.4 mg/kg/d, 4 days
Method: as §1

CARP mRNA [3] = assay: CARP mRNA levels in isolated myocytes treated with adrenoceptor agonists and kinase inhibitors; format: cell-based; conditions: for CARP mRNA/GAPDH mRNA: ISO 1 μM (n=9), PE 50 μM (n=11); for reversal of the effects of ISO and PE on CARP mRNA expression: ISO 1 μM, PE 50 μM
Method: as §1

CARP protein [4] = assay: CARP protein levels in isolated myocytes treated with adrenoceptor agonists; format: cell-based; conditions: ISO 1 μM, PE 50 μM, n=4
Method: as §1

CARP mRNA [5] = assay: CARP mRNA expression in left ventricular myocardium of treated rats, Northern blot; format: in vivo, Male Wistar rats; conditions: 2.4 mg/kg/d, 4 days
Method: as §1

SMILES | CARP mRNA/GAPDH mRNA (CARP mRNA [3]) | CARP/CSQ (CARP protein level) (CARP protein [4]) | reversal of the effects of ISO and PE on CARP mRNA expression (CARP mRNA [3]) | other results
CC(C)NCC(O)c1ccc(O)c(O)c1 (centres unmarked) [ISO, isoprenaline] | 148±10 % of control | 161±10 % of control |  | increase in heart weight/body weight ratio [1]: 40%; increase in CARP protein (CARP protein [2]; Western blot, vs NaCl): 50%; CARP/calsequestrin (CARP protein [2]; n=6, NaCl control 0.41±0.03): 0.61±0.07; CARP mRNA/GAPDH mRNA (CARP mRNA [5]; LV myocardium, n=6, NaCl control 1.3±0.12): 3.1±0.5; increase in CARP mRNA expression in left ventricular (LV) myocardium (CARP mRNA [5]; Northern blot, vs NaCl): 140%
CNC[C@H](O)c1cccc(O)c1 [PE, phenylephrine] | 178±20 % of control | 172±7 % of control |  | 
C[S+]([O-])c1ccc(-c2nc(-c3ccncc3)c(-c3ccc(F)cc3)[nH]2)cc1 (centres unmarked) [SB203580] |  |  | not | 
N#CC(=C(/N)Sc1ccccc1N)/C(C#N)=C(\N)Sc1ccccc1N [U0126] |  |  | completely reversed | 
